Columns and labels:
purple nutsedge = test: Test B pre/postemergence purple nutsedge; type: in vivo, Cyperus rotundus
Procedure, shortened: (§1)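 Test chemicals in a non-phytotoxic solvent mixture with surfactant were sprayed preemergence onto planted seeds and postemergence onto plants 2 to 18 cm tall (1- to 4-leaf stage). After twelve to sixteen days in a greenhouse, injury was visually rated against untreated controls from 0 (no effect) to 10 (complete control).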

velvetleaf = test: Test B pre/postemergence velvetleaf; type: in vivo, Abutilon theophrasti
Procedure, shortened: as §1

blackgrass = test: Test B pre/postemergence blackgrass; type: in vivo, Alopecurus myosuroides
Procedure, shortened: as §1

crabgrass = test: Test B pre/postemergence crabgrass; type: in vivo, Digitaria sanguinalis
Procedure, shortened: as §1

cocklebur = test: Test B pre/postemergence cocklebur; type: in vivo, Xanthium strumarium
Procedure, shortened: as §1

rape = test: Test B pre/postemergence rape; type: in vivo, Brassica napus
Procedure, shortened: as §1

wild oat = test: Test B pre/postemergence wild oat; type: in vivo, Avena fatua
Procedure, shortened: as §1

corn = test: Test B pre/postemergence corn; type: in vivo, Zea mays
Procedure, shortened: as §1

sugar beet = test: Test B pre/postemergence sugar beet; type: in vivo, Beta vulgaris
Procedure, shortened: as §1

soybean = test: Test B pre/postemergence soybean; type: in vivo, Glycine max
Procedure, shortened: as §1

bedstraw = test: Test B pre/postemergence bedstraw; type: in vivo, Galium aparine
Procedure, shortened: as §1

giant foxtail = test: Test B pre/postemergence giant foxtail; type: in vivo, Setaria faberii
Procedure, shortened: as §1

morningglory = test: Test B pre/postemergence morningglory; type: in vivo, Ipomoea hederacea
Procedure, shortened: as §1

pigweed = test: Test B pre/postemergence pigweed; type: in vivo, Amaranthus retroflexus
Procedure, shortened: as §1

wheat = test: Test B pre/postemergence wheat; type: in vivo, Triticum aestivum
Procedure, shortened: as §1

surinam grass = test: Test B pre/postemergence surinam grass; type: in vivo, Brachiaria decumbens
Procedure, shortened: as §1

[1] = Postemergence, Rate 62 g/ha, scale 0 to 10, 0 is no effect, 10 is complete control
[2] = Postemergence, Rate 125 g/ha, scale of 0 to 10 where 0 is no effect and 10 is complete control
[3] = Postemergence, Rate 500 g/ha, scale 0 (no effect) to 10 (complete control)
[4] = Rate 62 g/ha, Preemergence, scale 0 to 10
[5] = Rate 125 g/ha, Preemergence, scale 0 to 10 (0 no effect, 10 complete control)
[6] = Rate 500 g/ha, Preemergence, scale 0 to 10 (0 no effect, 10 complete control)
[7] = Rate 250 g/ha, Postemergence, scale 0 to 10, 0 is no effect, 10 is complete control
[8] = Preemergence, Rate 250 g/ha, scale 0 (no effect) to 10 (complete control)

For `COC1CCC(Cn2c(=O)on(C(=O)N(c3ccc(F)cc3)C(C)C)c2=O)=NO1` (centres unmarked) [Compound 766], the “Plant response rating, Nutsedge” value (purple nutsedge; [1]) was 0, the “Nutsedge plant response rating” value (purple nutsedge; [2]) was 3 and the “Nutsedge plant response rating” value (purple nutsedge; [3]) was 5. The “Nutsedge plant response rating” value (purple nutsedge; [4]) was 0, the “Nutsedge plant response rating” value (purple nutsedge; [5]) was 0 and the “Nutsedge plant response rating” value (purple nutsedge; [6]) was 4. For the same compound, the “Plant response rating, Velvetleaf” value (velvetleaf; [1]) was 0, the “Velvetleaf plant response rating” value (velvetleaf; [3]) was 5 and the “Velvetleaf plant response rating” value (velvetleaf; [4]) was 5. The “Velvetleaf plant response rating” value (velvetleaf; [5]) was 5, the “Velvetleaf plant response rating” value (velvetleaf; [7]) was 3 and the “Velvetleaf plant response rating” value (velvetleaf; [6]) was 10. The “Plant response rating, Blackgrass” value (blackgrass; [1]) was 0, the “Blackgrass plant response rating” value (blackgrass; [2]) was 5 and the “Blackgrass plant response rating” value (blackgrass; [8]) was 8. For the same compound, the “Blackgrass plant response rating” value (blackgrass; [4]) was 0, the “Blackgrass plant response rating” value (blackgrass; [5]) was 7 and the “Blackgrass plant response rating” value (blackgrass; [7]) was 6. For the same compound, the “Blackgrass plant response rating” value (blackgrass; [6]) was 9, the “Plant response rating, Crabgrass” value (crabgrass; [1]) was 2 and the “Crabgrass plant response rating” value (crabgrass; [2]) was 6. The “Crabgrass plant response rating” value (crabgrass; [3]) was 9, the “Crabgrass plant response rating” value (crabgrass; [8]) was 10 and the “Crabgrass plant response rating” value (crabgrass; [4]) was 9. For the same compound, the “Crabgrass plant response rating” value (crabgrass; [5]) was 9, the “Crabgrass plant response rating” value (crabgrass; [7]) was 6 and the “Crabgrass plant response rating” value (crabgrass; [6]) was 10. The “Plant response rating, Cocklebur” value (cocklebur; [1]) was 0, the “Cocklebur plant response rating” value (cocklebur; [2]) was 0 and the “Cocklebur plant response rating” value (cocklebur; [3]) was 6. The “Cocklebur plant response rating” value (cocklebur; [4]) was 0, the “Cocklebur plant response rating” value (cocklebur; [5]) was 0 and the “Cocklebur plant response rating” value (cocklebur; [7]) was 2. For the same compound, the “Cocklebur plant response rating” value (cocklebur; [6]) was 0, the “Plant response rating, Rape” value (rape; [1]) was 0 and the “Rape plant response rating” value (rape; [2]) was 0. For the same compound, the “Rape plant response rating” value (rape; [3]) was 0, the “Rape plant response rating” value (rape; [4]) was 2 and the “Rape plant response rating” value (rape; [5]) was 5. The “Rape plant response rating” value (rape; [7]) was 0, the “Rape plant response rating” value (rape; [6]) was 9 and the “Plant response rating, Wild oats” value (wild oat; [1]) was 0. The “Wild oats plant response rating” value (wild oat; [3]) was 2, the “Wild oats plant response rating” value (wild oat; [4]) was 3 and the “Wild oats plant response rating” value (wild oat; [5]) was 7. The “Wild oats plant response rating” value (wild oat; [7]) was 2, the “Wild oats plant response rating” value (wild oat; [6]) was 10 and the “Plant response rating, Corn” value (corn; [1]) was 0. For the same compound, the “Corn plant response rating” value (corn; [2]) was 0, the “Corn plant response rating” value (corn; [3]) was 4 and the “Corn plant response rating” value (corn; [8]) was 0. The “Corn plant response rating” value (corn; [4]) was 0, the “Corn plant response rating” value (corn; [5]) was 0 and the “Corn plant response rating” value (corn; [7]) was 4. For the same compound, the “Corn plant response rating” value (corn; [6]) was 3, the “Plant response rating, Sugarbeets” value (sugar beet; [1]) was 0 and the “Sugarbeets plant response rating” value (sugar beet; [3]) was 2. For the same compound, the “Sugarbeets plant response rating” value (sugar beet; [4]) was 2, the “Sugarbeets plant response rating” value (sugar beet; [5]) was 6 and the “Sugarbeets plant response rating” value (sugar beet; [7]) was 2. The “Sugarbeets plant response rating” value (sugar beet; [6]) was 9, the “Plant response rating, Soybean” value (soybean; [1]) was 2 and the “Soybean plant response rating” value (soybean; [3]) was 4. For the same compound, the “Soybean plant response rating” value (soybean; [4]) was 0, the “Soybean plant response rating” value (soybean; [5]) was 0 and the “Soybean plant response rating” value (soybean; [7]) was 4. The “Soybean plant response rating” value (soybean; [6]) was 0, the “Plant response rating, Bedstraw” value (bedstraw; [1]) was 0 and the “Bedstraw plant response rating” value (bedstraw; [2]) was 0. For the same compound, the “Bedstraw plant response rating” value (bedstraw; [3]) was 3, the “Bedstraw plant response rating” value (bedstraw; [8]) was 10 and the “Bedstraw plant response rating” value (bedstraw; [4]) was 4. For the same compound, the “Bedstraw plant response rating” value (bedstraw; [5]) was 9, the “Bedstraw plant response rating” value (bedstraw; [7]) was 0 and the “Bedstraw plant response rating” value (bedstraw; [6]) was 9. The “Plant response rating, Giant foxtail” value (giant foxtail; [1]) was 0, the “Giant foxtail plant response rating” value (giant foxtail; [2]) was 8 and the “Giant foxtail plant response rating” value (giant foxtail; [3]) was 9. The “Giant foxtail plant response rating” value (giant foxtail; [8]) was 9, the “Giant foxtail plant response rating” value (giant foxtail; [4]) was 9 and the “Giant foxtail plant response rating” value (giant foxtail; [5]) was 9. For the same compound, the “Giant foxtail plant response rating” value (giant foxtail; [7]) was 9, the “Giant foxtail plant response rating” value (giant foxtail; [6]) was 10 and the “Plant response rating, Morningglory” value (morningglory; [1]) was 2. For the same compound, the “Morningglory plant response rating” value (morningglory; [2]) was 2, the “Morningglory plant response rating” value (morningglory; [3]) was 2 and the “Morningglory plant response rating” value (morningglory; [4]) was 2. The “Morningglory plant response rating” value (morningglory; [5]) was 3, the “Morningglory plant response rating” value (morningglory; [7]) was 2 and the “Morningglory plant response rating” value (morningglory; [6]) was 3. The “Plant response rating, Redroot pigweed” value (pigweed; [1]) was 5, the “Redroot pigweed plant response rating” value (pigweed; [2]) was 6 and the “Redroot pigweed plant response rating” value (pigweed; [3]) was 8. For the same compound, the “Redroot pigweed plant response rating” value (pigweed; [4]) was 9, the “Redroot pigweed plant response rating” value (pigweed; [5]) was 10 and the “Redroot pigweed plant response rating” value (pigweed; [7]) was 6. For the same compound, the “Redroot pigweed plant response rating” value (pigweed; [6]) was 10, the “Plant response rating, Wheat” value (wheat; [1]) was 0 and the “Wheat plant response rating” value (wheat; [3]) was 3. The “Wheat plant response rating” value (wheat; [4]) was 0, the “Wheat plant response rating” value (wheat; [5]) was 4 and the “Wheat plant response rating” value (wheat; [7]) was 3. The “Wheat plant response rating” value (wheat; [6]) was 10, the “Plant response rating, B. signalgrass” value (surinam grass; [1]) was 0 and the “B. signalgrass plant response rating” value (surinam grass; [2]) was 2. The “B. signalgrass plant response rating” value (surinam grass; [8]) was 10, the “B. signalgrass plant response rating” value (surinam grass; Rate 62 g/ha, Preemergence, scale 0 (no effect) to 10 (complete control)) was 6 and the “B. signalgrass plant response rating” value (surinam grass; [5]) was 8. For the same compound, the “B. signalgrass plant response rating” value (surinam grass; [7]) was 8 and the “B. signalgrass plant response rating” value (surinam grass; [6]) was 10.

Source: patent publication US6737383B1, “Herbicidal oxadiazolidines” (priority 1999, dated 2004)
